{
  "source": "paper PMC11990879",
  "about": "“Anticandidal Activity of Lipopeptides Containing an LL-37-Derived Peptide Fragment KR12” (Molecules, 2025)",
  "key": {"[1]": {"system": "C. albicans biofilms cultured on polystyrene", "type": "cell-based, Candida albicans", "experimental": "(§1) Fungal strains were purchased from the Polish Collection of Microorganisms (Polish Academy of Science, Wroclaw, Poland). Four reference strains of Candida (C. albicans ATCC 10231, C. glabrata ATCC 15126, C. lypolytica PCM 2680, and C. tropicalis PCM 2680) were cultured on the Dextrose Sabouraud Agar (DSA, Neogen, Lansing, MI, USA). Before performing the assays, the fungi were cultured in a Sabouraud dextrose broth (DSB, Neogen, Lansing, MI, USA) for 48 h under aerobic conditions at 25 °C. Afterward, the fungal cultures were centrifuged (2500 rpm, 10 min) and resuspended in the appropriate liquid medium for appropriate inoculums for the performed assays.\nFungal suspensions in DSB were added to the wells at initial inoculums of ca. 5 × 10^6 CFU/mL and incubated under aerobic conditions, at 25 °C for 24 h, 48 h, and 72 h, in order to grow candidal biofilms of different maturity. After the appropriate time of incubation, the wells were washed with phosphoric buffered (PBS), and fresh RPMI medium supplemented with antifungals and the lipopeptides at graded concentrations (range […]) were added. The fungal biofilms were exposed to the compounds for 24 h (aerobic conditions, 25 °C). After the exposure to antifungals, the content of the wells was aspirated and a 0.01% solution of resazurin (Sigma-Aldrich, St. Louis, MO, USA) in DSB was added. Resazurin (blue) was applied as a cell viability reagent, which upon contact with living cells is reduced to a pink resorufin. The samples with the dye were incubated for 1 h at 25 °C and the absorbance was measured at 570 and 600 nm with a microplate reader (Thermo Fisher Scientific, Waltham, MA, USA). The assays were performed four times on four different days. The results are presented as the means of the measured percentage of metabolic activity (MA) of fungi in the well when compared with positive (sample with Candida in DSB) and negative controls (pure DSB), which were taken as 100% and 0%, respectively. The MA of Candida in the samples was measured according to the following formula:MA(%) = (ΔAbs of sample − ΔAbs of negative control)/(ΔAbs of positive control − ΔAbs of negative control);(1) ΔAbs = absorbance at 570 nm − absorbance at 600 nm.(2)\nThe MBEC was taken as the lowest concentration of antifungal which allowed us to reduce the metabolism of fungal cells to 10% (or less) of the positive control."}, "[2]": {"system": "Candida strains (C. albicans, C. glabrata, C. lipolytica, C. tropicalis)", "type": "cell-based", "conditions": "MFCs equal to or twice as high as the corresponding MICs", "experimental": "as §1\n(§2) The strains cultured described in Section 4.1 were suspended in the Roswell Park Memorial Institute 1640 Medium (RPMI, Sigma-Aldrich, St. Louis, MO, USA) at an initial inoculum of ca. 5 × 10^3 CFU/mL. The stock solutions (1024 mg/L) of tested compounds in RPMI were added to 96-well polystyrene plates and diluted serially to well no. 10, leaving wells 11 and 12 for fertility and sterility controls. The tested Candida strains were exposed to graded concentrations (range 0.5–256 mg/L) of the lipopeptides and conventional antifungals (benzalkonium chloride, fluconazole, and nystatin) for 48 h under aerobic conditions at 25 °C. After incubation, the results were read visually.\n(§3) Then the results were read visually. Both MIC as well as the MFC assays were performed threetimes on three different days."}, "human red blood cells": {"system": "human red blood cells", "conditions": "cited from earlier work", "description": "Table 2 Minimum inhibitory concentrations (MIC) and minimum fungicidal concentrations (MFC) determined for peptides and reference antifungals [g/L]. The highest antimicrobial activity is marked in green, medium values in yellow, while the weakest antifungal activity is marked in red. Minimum hemolytic concentration (MHC5%—causing hemolysis of 5% of human red blood cells) determined in previous stu | column: MHC5%"}, "[3]": {"system": "C. albicans biofilms cultured on polystyrene", "type": "cell-based, Candida albicans", "conditions": "C. albicans biofilms of 24, 48 and 72 h, up to 512 mg/L"}, "C. albicans ATCC 10231 [4]": {"system": "C. albicans ATCC 10231", "test": "microbe, parasite or virus in culture", "type": "cell-based, Candida albicans", "experimental": "as §1, §2"}, "C. albicans ATCC 10231 [5]": {"system": "C. albicans ATCC 10231", "test": "microbe, parasite or virus in culture", "type": "cell-based, Candida albicans", "conditions": "MIC wells and two higher concentrations seeded on DSA, 48 h, 25 °C, read visually, three times", "experimental": "as §1, §2, §3"}, "C. glabrata ATCC 15126 [6]": {"system": "C. glabrata ATCC 15126", "test": "microbe, parasite or virus in culture", "type": "cell-based, Candida glabrata", "conditions": "first C. glabrata column; RPMI 1640, inoculum ca. 5 × 10^3 CFU/mL, range 0.5–256 mg/L, 48 h, 25 °C, read visually, three times on three days", "experimental": "as §1, §2"}, "C. glabrata ATCC 15126 [7]": {"system": "C. glabrata ATCC 15126", "test": "microbe, parasite or virus in culture", "type": "cell-based, Candida glabrata", "conditions": "MIC wells and two higher concentrations seeded on DSA, 48 h, 25 °C, read visually, three times", "experimental": "as §1, §2, §3"}, "C. lypolytica PCM 2680 [8]": {"system": "C. lypolytica PCM 2680", "test": "microbe, parasite or virus in culture", "type": "cell-based, Candida lipolytica", "conditions": "RPMI 1640, inoculum ca. 5 × 10^3 CFU/mL, range 0.5–256 mg/L, 48 h, 25 °C, read visually, three times on three days", "experimental": "as §1, §2"}, "C. lypolytica PCM 2680 [9]": {"system": "C. lypolytica PCM 2680", "test": "microbe, parasite or virus in culture", "type": "cell-based, Candida lipolytica", "conditions": "MIC wells and two higher concentrations seeded on DSA, 48 h, 25 °C, read visually, three times", "experimental": "as §1, §2, §3"}, "C. tropicalis PCM 2680 [10]": {"system": "C. tropicalis PCM 2680", "test": "microbe, parasite or virus in culture", "type": "cell-based, Candida tropicalis", "experimental": "as §1, §2"}, "C. tropicalis PCM 2680 [11]": {"system": "C. tropicalis PCM 2680", "test": "microbe, parasite or virus in culture", "type": "cell-based, Candida tropicalis", "conditions": "MIC wells and two higher concentrations seeded on DSA, 48 h, 25 °C, read visually, three times", "experimental": "as §1, §2, §3"}, "[12]": {"conditions": "no inhibition at the highest concentration applied"}},
  "note": "Where two headings read alike, the source gives them in different places. Marks after values point to notes of the source that are not given here. Where a SMILES comes first, the peptide text is derived from it. The star is where a group is joined. Decanoyl = CCCCCCCCCC(=O)*; Octanoyl = CCCCCCCC(=O)*; Bz = O=C(c1ccccc1)*",
  "data": [
    {"compound": "C[C@@H]1[C@H](O)[C@@H](C)/C=C/C=C/CC/C=C/C=C/C=C/C=C/C(O[C@H]2O[C@H](C)[C@@H](O)[C@H](N)[C@@H]2O)CC2O[C@](O)(CC(O)C(O)CCC(O)CC(O)CC(O)CC(=O)O[C@H]1C)CC(O)C2C(=O)O", "note": "(stereo partly shown) [Nystatin, nystatin, reference compound]", "values": [
      {"measurement": "Antibiofilm concentration (256 mg/L) relative to the determined MIC", "setting": "[1]; C. albicans biofilm", "value": "over 100 times"},
      {"measurement": "MBEC 24 h", "setting": "[1]; C. albicans biofilm cultured on polystyrene for 24 h, exposure 24 h, 25 °C, RPMI, resazurin, metabolic activity reduced to 10% or less, four times on four days", "value": 256, "unit": "mg/L"},
      {"measurement": "MBEC 48 h", "setting": "[1]; C. albicans biofilm cultured on polystyrene for 48 h, exposure 24 h, 25 °C, RPMI, resazurin, metabolic activity reduced to 10% or less, four times on four days", "value": 256, "unit": "mg/L"},
      {"measurement": "MBEC 72 h", "setting": "[1]; C. albicans biofilm cultured on polystyrene for 72 h, exposure 24 h, 25 °C, RPMI, resazurin, metabolic activity reduced to 10% or less, four times on four days", "value": 256, "unit": "mg/L"},
      {"measurement": "Fungicidal activity (MFC relative to MIC)", "setting": "[2]", "value": "fungicidal activity against all Candida strains"}
    ]},
    {"compound": "CCCCCCCCCC(=O)N[C@@H](CCCCN)C(=O)N[C@@H](CCCNC(=N)N)C(=O)N[C@H](C(=O)N[C@H](C(=O)N[C@@H](CCC(N)=O)C(=O)N[C@@H](CCCNC(=N)N)C(=O)N[C@H](C(=O)N[C@@H](CCCCN)C(=O)N[C@@H](CC(=O)O)C(=O)N[C@@H](Cc1ccccc1)C(=O)N[C@@H](CC(C)C)C(=O)N[C@@H](CCCNC(=N)N)C(N)=O)[C@@H](C)CC)C(C)C)[C@@H](C)CC", "note": "[V, C10-KR12-NH2] (Decanoyl-KRIVQRIKDFLR-NH2)", "values": [
      {"measurement": "MBEC 24 h", "setting": "[1]; biofilms cultured on polystyrene, 24 h", "value": ">512 * mg/L"},
      {"measurement": "MBEC 48 h", "setting": "[1]; biofilms cultured on polystyrene, 48 h", "value": ">512 * mg/L"},
      {"measurement": "MBEC 72 h", "setting": "[1]; biofilms cultured on polystyrene, 72 h", "value": ">512 * mg/L"},
      {"measurement": "MHC5% (minimum hemolytic concentration causing hemolysis of 5% of human red blood cells)", "setting": "human red blood cells", "value": 4, "unit": "g/L"},
      {"measurement": "Antibiofilm activity against any type of biofilm", "setting": "[3]", "value": "did not exhibit antibiofilm activity"}
    ]},
    {"compound": "CC[C@H](C)[C@H](NC(=O)[C@H](CCCNC(=N)N)NC(=O)[C@H](CCC(N)=O)NC(=O)[C@@H](NC(=O)[C@@H](NC(=O)[C@H](CCCNC(=N)N)NC(=O)[C@H](CCCCN)NC(=O)c1ccccc1)[C@@H](C)CC)C(C)C)C(=O)N[C@@H](CCCCN)C(=O)N[C@@H](CC(=O)O)C(=O)N[C@@H](Cc1ccccc1)C(=O)N[C@@H](CC(C)C)C(=O)N[C@@H](CCCNC(=N)N)C(N)=O", "note": "[VIII, Benzoic acid-KR12-NH2] (Bz-KRIVQRIKDFLR-NH2)", "values": [
      {"measurement": "Minimum inhibitory concentration (MIC), C. albicans", "setting": "C. albicans ATCC 10231 [4]; C. albicans, RPMI 1640, inoculum ca. 5 × 10^3 CFU/mL, range 0.5–256 mg/L, 48 h, 25 °C, read visually, three times on three days", "value": 64, "unit": "µg/mL"},
      {"measurement": "Minimum fungicidal concentration (MFC), C. albicans", "setting": "C. albicans ATCC 10231 [5]", "value": 64, "unit": "µg/mL"},
      {"measurement": "Minimum inhibitory concentration (MIC), C. glabrata", "setting": "C. glabrata ATCC 15126 [6]", "value": 256, "unit": "µg/mL"},
      {"measurement": "Minimum fungicidal concentration (MFC), C. glabrata", "setting": "C. glabrata ATCC 15126 [7]", "value": 256, "unit": "µg/mL"},
      {"measurement": "Minimum inhibitory concentration (MIC), C. lipolytica", "setting": "C. lypolytica PCM 2680 [8]", "value": 32, "unit": "µg/mL"},
      {"measurement": "Minimum fungicidal concentration (MFC), C. lipolytica", "setting": "C. lypolytica PCM 2680 [9]", "value": 32, "unit": "µg/mL"},
      {"measurement": "Minimum inhibitory concentration (MIC), C. tropicalis", "setting": "C. tropicalis PCM 2680 [10]; C. tropicalis, RPMI 1640, inoculum ca. 5 × 10^3 CFU/mL, range 0.5–256 mg/L, 48 h, 25 °C, read visually, three times on three days", "value": 8, "unit": "µg/mL"},
      {"measurement": "Minimum fungicidal concentration (MFC), C. tropicalis", "setting": "C. tropicalis PCM 2680 [11]", "value": 16, "unit": "µg/mL"},
      {"measurement": "MHC5% (minimum hemolytic concentration causing hemolysis of 5% of human red blood cells)", "setting": "human red blood cells; human red blood cells, determined in previous studies, ref [13],[14]", "value": ">256 * g/L"}
    ]},
    {"compound": "CCCCCCCC(=O)NCCCC[C@H](NC(=O)CCCCCCC)C(=O)N[C@@H](CCCNC(=N)N)C(=O)N[C@H](C(=O)N[C@H](C(=O)N[C@@H](CCC(N)=O)C(=O)N[C@@H](CCCNC(=N)N)C(=O)N[C@H](C(=O)N[C@@H](CCCCN)C(=O)N[C@@H](CC(=O)O)C(=O)N[C@@H](Cc1ccccc1)C(=O)N[C@@H](CC(C)C)C(=O)N[C@@H](CCCNC(=N)N)C(N)=O)[C@@H](C)CC)C(C)C)[C@@H](C)CC", "note": "[XVI, C8^α,C8^ε-KR12-NH2] (Octanoyl-K(Octanoyl)RIVQRIKDFLR-NH2)", "values": [
      {"measurement": "Growth inhibition of C. albicans (MIC)", "setting": "C. albicans ATCC 10231 [4]; [12]", "value": "resistant"},
      {"measurement": "Growth inhibition of C. tropicalis (MIC)", "setting": "C. tropicalis PCM 2680 [10]; [12]", "value": "resistant"},
      {"measurement": "MHC5% (minimum hemolytic concentration causing hemolysis of 5% of human red blood cells)", "setting": "human red blood cells", "value": ">256 * g/L"}
    ]}
  ]
}
